Here are results for 40 molecules from patent US7732473B2, “Compounds with nootropic action, their preparation, pharmaceutical compositions containing them, and use thereof” (Neurotune AG, priority 2006, dated 2010).

For one series, the system named is rat model of mononeuropathy dx. The series can be described thus: Paw-pressure test in rat chronic constriction injury model of mononeuropathy, injured paw (dx). In kind it is in vivo. The settings on record: i.c.v., dose per compound (3-300 μg); paw-pressure test 14 days after operation. An excerpt: Pharmacological Methods Chronic Constriction Injury Model
A peripheral mononeuropathy was produced in adult rats by placing loosely constrictive ligatures around the common sciatic nerve according to the method described by Bennett & Xie (Pain […], 33, 87-107).
Rats were anesthetized with chloral hydrate. The common sciatic nerve was exposed at the level of the middle of the thigh by blunt dissection through biceps femoris. Proximal to sciatica's trifurcation, about 1 cm of the nerve was freed of adhering tissue and four ligatures (3/0 silk tread) were tied loosely around it with about 1 mm spacing. The length of the nerve thus affected was […]. Great care was taken to tie the ligatures such that the diameter of the nerve was seen to be just barely constricted when viewed with 40× magnification. The left paw was untouched.
The nociceptive threshold in the rat was determined with an analgesimeter (Ugo Basile, Varese, Italy), according to the method described by Leighton et al. (Br. J. Pharmacol. 1988, 93, 553-560). Rats scoring below 40 g or over 75 g during the test before drug administration (25%) were rejected. An arbitrary cut-off value of 250 g was adopted.
In the case of `CC(C)c1cccc(N2C(=O)CN3C(=O)CCC32)c1` (stereo not drawn) [Example 22, 1-(3-Isopropyl-phenyl)-tetrahydro-pyrrolo [1,2-a]imidazole-2,5-dione], the “antihyperalgic effect compared with saline or vehicle treated group” value is on record as “showed an antihyperalgic effect”. On to `Cc1ccccc1N1C(=O)CN2C(=O)CCC21` (stereo not drawn) [Example 2, 1-o-tolyl-tetrahydro-1H-pyrrolo[1,2-a]imidazole-2,5-dione], for which the “antihyperalgic effect compared with saline or vehicle treated group” value is on record as “showed an antihyperalgic effect”. `O=C1CCC2N1CC(=O)N2c1ccccc1` (stereo not drawn) [Example 1, 1-Phenyl-tetrahydro-1H-pyrrolo[1,2-a]imidazole-2,5-dione]: the “antihyperalgic effect compared with saline or vehicle treated group” value is reported as “showed an antihyperalgic effect”. Regarding `N#Cc1cccc(N2C(=O)CN3C(=O)CCC32)c1` (stereo not drawn) [Example 13, 1-(3-Cyano-phenyl)-tetrahydro-pyrrolo [1,2-a]imidazole-2,5-dione], the “antihyperalgic effect compared with saline or vehicle treated group” value was “showed an antihyperalgic effect”. Consider `CC[C@@H](C(N)=O)N1CCCC1=O` [LEVETIRACETAM, 2-(2-oxopyrrolidin-1-yl) butyramide, reference compound], for which the “antihyperalgic effect compared with saline or vehicle treated group” value is given as “showed an antihyperalgic effect”. Still for that read-out and setting: with `O=C1CN2C(=O)CCC2N1` (stereo not drawn) [DIMIRACETAM, 2,5-dioxohexahydro-1H-pyrrolo[1,2-a]imidazole, reference compound] the entry was “showed an antihyperalgic effect”; with `NCC1(CC(=O)O)CCCCC1` [GABAPENTIN, reference compound], “showed an antihyperalgic effect”. Still for that read-out and setting: with `Cc1ccc(N2C(=O)CN3C(=O)CCC32)cc1` (stereo not drawn) [Example 6, 1-p-Tolyl-tetrahydro-pyrrolo[1,2-a]imidazole-2,5-dione] the entry was “showed an antihyperalgic effect”. Same read-out and setting: with `Cc1cccc(N2C(=O)CN3C(=O)CCC32)c1` (stereo not drawn) [Example 5, 1-m-Tolyl-tetrahydro-pyrrolo[1,2-a]imidazole-2,5-dione] the entry was “showed an antihyperalgic effect”.

System in another series: not given
Assay: not given
Conditions: not given
In the case of `Cc1ccc(F)cc1N1C(=O)CN2C(=O)CCC21` (stereo not drawn) [Example 7, 1-(5-Fluoro-2-methyl-phenyl)-tetrahydro-pyrrolo[1,2-a]imidazole-2,5-dione], the melting point was 147 to 148 °C. The same measure, in the same setting: with `CC(C)c1cccc(N2C(=O)CN3C(=O)CCC32)c1` (stereo not drawn) [Example 22, 1-(3-Isopropyl-phenyl)-tetrahydro-pyrrolo [1,2-a]imidazole-2,5-dione] the figure was 81 to 82 °C.

As for `N#Cc1ccccc1N1C(=O)CN2C(=O)CCC21` (stereo not drawn) [Example 43, 1-(2-Cyano-phenyl)-tetrahydro-pyrrolo [1,2-a]imidazole-2,5-dione], the melting point was in the range of 94 to 95 °C. For `O=C1CCC2N1CC(=O)N2c1cccs1` (stereo not drawn) [Example 4, 1-Thiophen-2-yl-tetrahydro-pyrrolo[1,2-a]imidazole-2,5-dione], the melting point is 170 to 171 °C.

For the molecule `Cc1c(F)cccc1N1C(=O)CN2C(=O)CCC21` (stereo not drawn) [Example 8], the melting point lay within 135 to 137 °C. For `Cc1ccccc1N1C(=O)CN2C(=O)CCC21` (stereo not drawn) [Example 2, 1-o-tolyl-tetrahydro-1H-pyrrolo[1,2-a]imidazole-2,5-dione], the melting point was in the range of 138 to 139 °C. The same measure, in the same setting: the same measure for `CC1C(=O)N(c2ccccc2)C2CCC(=O)N12` (stereo not drawn) [Example 25, 3-Methyl-1-phenyl-tetrahydro-pyrrolo [1,2-a]imidazole-2,5,-dione]: 137 to 138 °C; for `O=C1CCC2N1CC(=O)N2c1ccccc1` (stereo not drawn) [Example 1, 1-Phenyl-tetrahydro-1H-pyrrolo[1,2-a]imidazole-2,5-dione]: 185 to 188 °C; for `O=C1CCC2N1CC(=O)N2c1ccc(Cl)cc1` (stereo not drawn) [Example 14, 1-(4-Chloro-phenyl)-tetrahydro-pyrrolo [1,2-a]imidazole-2,5-dione]: 159 to 160 °C.

Regarding `O=C1CCC2N1CC(=O)N2c1ccc(F)cc1` (stereo not drawn) [Example 38, 1-(4-Fluoro-phenyl)-tetrahydro-pyrrolo [1,2-a]imidazole-2,5-dione], the melting point lay in the range of 158 to 159 °C. The molecule `O=C1CCC2N1CC(=O)N2c1ccc(CO)cc1` (stereo not drawn) [Example 34, 1-(4-Hydroxymethyl-phenyl)-tetrahydro-pyrrolo[1,2-a]imidazole-2,5-dione] came in with a melting point of 159 to 161 °C.

Consider `COc1ccc(N2C(=O)CN3C(=O)CCC32)cc1` (stereo not drawn) [Example 18, 1-(4-Methoxy-phenyl)-tetrahydro-pyrrolo[1,2-a]imidazole-2,5-dione], for which the melting point is 210 to 211 °C. The same measure, in the same setting: the same measure for `O=C1CCC2N1CC(=O)N2c1ccc2ccccc2c1` (stereo not drawn) [Example 21, 1-Naphthalen-2-yl-tetrahydro-pyrrolo [1,2-a]imidazole-2,5-dione]: 175 to 176 °C. In turn, `CCOC(=O)c1ccc(N2C(=O)CN3C(=O)CCC32)cc1` (stereo not drawn) [Example 36, 4-(2,5-Dioxo-hexahydro-pyrrolo[1,2-a]imidazole-1-yl)-benzoic acid ethyl ester] yielded a melting point of 158 to 159 °C.

Regarding `O=C1CCC2N1CC(=O)N2c1cccnc1` (stereo not drawn) [Example 41, 1-Pyridin-3-yl-tetrahydro-pyrrolo[1,2-a] imidazole-2,5-dione], the melting point was 180 to 182 °C. The molecule `CC(C)CC1C(=O)N(c2ccccc2)C2CCC(=O)N12` (stereo not drawn) [Example 26, 3-Isobutyl-1-phenyl-tetrahydro-pyrrolo [1,2-a]imidazole-2,5,-dione] showed a melting point of 101 to 102 °C. Molecule `N#Cc1cccc(N2C(=O)CN3C(=O)CCC32)c1` (stereo not drawn) [Example 13, 1-(3-Cyano-phenyl)-tetrahydro-pyrrolo [1,2-a]imidazole-2,5-dione] showed a melting point of 128 to 130 °C.

`Cc1ccc(N2C(=O)CN3C(=O)CCC32)nc1` (stereo not drawn) [Example 42, 1-(5-Methylpyridin-2-yl)-tetrahydropyrrolo [1,2-a]imidazole-2,5-dione] came in with a melting point of 158 to 159 °C.

For the molecule `O=C1CCC2N1CC(=O)N2c1cccc(F)c1` (stereo not drawn) [Example 44, 1-(3-Fluoro-phenyl)-tetrahydro-pyrrolo [1,2-a]imidazole-2,5-dione], the melting point was 145 to 149 °C. Still for that read-out and setting: with `CC12CCC(=O)N1CC(=O)N2c1ccccc1` (stereo not drawn) [Example 29, 7a-Methyl-1-phenyl-tetrahydro-pyrrolo [1,2-a]imidazole-2,5-dione] the figure was 154 to 155 °C.

Molecule `COc1cccc(N2C(=O)CN3C(=O)CCC32)c1` (stereo not drawn) [Example 12, 1-(3-Methoxy-phenyl)-tetrahydro-pyrrolo [1,2-a]imidazole-2,5-dione] returned a melting point of 94 to 95 °C. The same measure, in the same setting: the same measure for `O=C(O)c1ccc(N2C(=O)CN3C(=O)CCC32)cc1` (stereo not drawn) [Example 35, 4-(2,5-Dioxo-hexahydro-pyrrolo[1,2-a]imidazole-1-yl)-benzoic acid]: 252 to 253 °C. `N#Cc1ccc(N2C(=O)CN3C(=O)CCC32)cc1` (stereo not drawn) displayed a melting point of 175 to 176 °C. The molecule `O=C1CCC2N1CC(=O)N2c1cccc(O)c1` (stereo not drawn) [Example 15, 1-(3-Hydroxy-phenyl)-tetrahydro-pyrrolo [1,2-a]imidazole-2,5-dione] showed a melting point of 210 to 211 °C. The molecule `Cc1ccc(N2C(=O)CN3C(=O)CCC32)cc1C` (stereo not drawn) [Example 20, 1-(3,4-Dimethyl-phenyl)-tetrahydro-pyrrolo [1,2-a]imidazole-2,5-dione] gave a melting point of 142 to 143 °C. Molecule `Cc1ccc(N2C(=O)CN3C(=O)CCC32)cc1F` (stereo not drawn) [Example 28, 1-(3-Fluoro-4-methyl-phenyl)-tetrahydro-pyrrolo[1,2-a]imidazole-2,5-dione] showed a melting point of 136 to 137 °C. For `Cc1cc(Cl)ccc1N1C(=O)CN2C(=O)CCC21` (stereo not drawn) [Example 10, 1-(4-Chloro-2-methyl-phenyl)-tetrahydro-pyrrolo[1,2-a]imidazole-2,5-dione], the melting point lay within 122 to 124 °C. On to `Cc1cc(N2C(=O)CN3C(=O)CCC32)ccc1Cl` (stereo not drawn) [Example 23, 1-(4-Chloro-3-methyl-phenyl)-tetrahydro-pyrrolo[1,2-a]imidazole-2,5-dione], for which the melting point was in the range of 138 to 139 °C. Regarding `Cc1cccc(N2C(=O)CN3C(=O)CCC32)c1` (stereo not drawn) [Example 5, 1-m-Tolyl-tetrahydro-pyrrolo[1,2-a]imidazole-2,5-dione], the melting point was 92 to 93 °C.

For the molecule `Cc1cc(C)cc(N2C(=O)CN3C(=O)CCC32)c1` (stereo not drawn) [Example 19, 1-(3,5-Dimethyl-phenyl)-tetrahydro-pyrrolo [1,2-a]imidazole-2,5-dione], the melting point lay within 103 to 104 °C. For `O=C1CCC2N1CC(=O)N2c1cccc(Cl)c1` (stereo not drawn) [Example 11, 1-(3-Chloro-phenyl)-tetrahydro-pyrrolo [1,2-a]imidazole-2,5-dione], the melting point is 123 to 125 °C.

The molecule `Cc1cc(F)cc(N2C(=O)CN3C(=O)CCC32)c1` (stereo not drawn) [Example 27, 1-(3-Fluoro-5-methyl-phenyl)-tetrahydro-pyrrolo[1,2-a]imidazole-2,5-dione] returned a melting point of 111 to 113 °C. In turn, `CS(=O)(=O)c1ccc(N2C(=O)CN3C(=O)CCC32)cc1` (stereo not drawn) [Example 37, 1-(4-Methanesulfonyl-phenyl)-tetrahydro-pyrrolo[1,2-a]imidazole-2,5-dione] gave a melting point of 143 to 145 °C. The molecule `O=C1C(Cc2ccccc2)N2C(=O)CCC2N1c1ccccc1` (stereo not drawn) [Example 24, 3-Benzyl-1-phenyl-tetrahydro-pyrrolo [1,2-a]imidazole-2,5,-dione] had a melting point of 134 to 136 °C. Take `O=C1CCC2N1CC(=O)N2c1ccccn1` (stereo not drawn) [Example 40, 1-Pyridin-2-yl-tetrahydro-pyrrolo[1,2-a] imidazole-2,5-dione]: the melting point was in the range of 139 to 140 °C. The same measure, in the same setting: with `CC(C)c1ccc(N2C(=O)CN3C(=O)CCC32)cc1` (stereo not drawn) [Example 33, 1-(4-Isopropyl-phenyl)-tetrahydro-pyrrolo [1,2-a]imidazole-2,5-dione] the figure was 124 to 125 °C.
